Experiments:
Rattus norvegicus [1] = assay: Reduction in circulating lymphocytes in Lewis rat blood at 2 mg/kg, po measured at 4 hrs by hematology analyzer based analysis; format: functional; design: scale not given: the % may be the effect or the level left
[2] = Drug metabolism in Lewis rat blood assessed as concentration of parent compound at 2 mg/kg, po measured at 4 hrs by LC-MS/MS analysis; format: ADME, organism-based; conditions: read-out: Ct
Rattus norvegicus [3] = assay: Reduction in circulating lymphocytes in Lewis rat blood at 2 mg/kg, po measured at 24 hrs by hematology analyzer based analysis; format: functional; design: scale not given: the % may be the effect or the level left
[4] = Drug metabolism in Lewis rat blood assessed as concentration of parent compound at 2 mg/kg, po measured at 24 hrs by LC-MS/MS analysis; format: ADME, organism-based; conditions: read-out: Ct
[5] = Half-life in Lewis rat at 2 mg/kg, po measured over 72 hrs by LC-MS/MS analysis; format: ADME, organism-based; conditions: in vivo
[6] = Ratio of drug metabolism in Lewis rat blood assessed as phosphate ester metabolite to parent drug at 2 mg/kg, po measured at 24 hrs by LC-MS/MS analysis; format: ADME, organism-based; conditions: in vivo
[7] = Pulmonary toxicity in Lewis rat assessed as elevation of BAL protein level at 10 mg/kg by advia1800 chemistry analyzer; format: organism-based; conditions: in vivo
[8] = Pulmonary toxicity in Lewis rat assessed as elevation of BAL protein level at 2 mg/kg by advia1800 chemistry analyzer; format: organism-based; conditions: in vivo
Rattus norvegicus [9] = assay: Reduction in circulating lymphocytes in Lewis rat blood assessed as effective dose after oral dosing measured at 24 hrs by hematology analyzer based analysis; format: functional
Rattus norvegicus [10] = assay: Drug metabolism in Lewis rat blood assessed as concentration of phosphate ester metabolite formation at 2 mg/kg, po measured at 4 hrs by LC-MS/MS analysis; conditions: in vivo
Mus musculus [11] = assay: Reduction in circulating lymphocytes in Balb/c mouse blood at 1 mg/kg, po measured at 4 hrs by hematology analyzer based analysis; format: functional; design: scale not given: the % may be the effect or the level left
Mus musculus [12] = assay: Reduction in circulating lymphocytes in Balb/c mouse blood at 50 mg/kg, po measured at 4 hrs by hematology analyzer based analysis; format: functional; design: scale not given: the % may be the effect or the level left
Mus musculus [13] = assay: Reduction in circulating lymphocytes in Balb/c mouse blood at 1 mg/kg, po measured at 24 hrs by hematology analyzer based analysis; format: functional; design: scale not given: the % may be the effect or the level left
Mus musculus [14] = assay: Reduction in circulating lymphocytes in Balb/c mouse blood at 50 mg/kg, po measured at 24 hrs by hematology analyzer based analysis; format: functional; design: scale not given: the % may be the effect or the level left
[15] = Drug metabolism in Balb/c mouse blood assessed as concentration of parent compound at 1 mg/kg, po measured at 4 hrs by LC-MS/MS analysis; format: ADME, organism-based; conditions: Balb/c, blood, read-out: Ct
[16] = Drug metabolism in Balb/c mouse blood assessed as concentration of parent compound at 50 mg/kg, po measured at 4 hrs by LC-MS/MS analysis; format: ADME, organism-based; conditions: read-out: Ct
[17] = Drug metabolism in Balb/c mouse blood assessed as concentration of phosphate ester metabolite formation at 1 mg/kg, po measured at 4 hrs by LC-MS/MS analysis; format: ADME, organism-based; conditions: in vivo
[18] = Drug metabolism in Balb/c mouse blood assessed as concentration of phosphate ester metabolite formation at 50 mg/kg, po measured at 4 hrs by LC-MS/MS analysis; format: ADME, organism-based; conditions: in vivo
[19] = Drug metabolism in Balb/c mouse blood assessed as concentration of parent compound at 1 mg/kg, po measured at 24 hrs by LC-MS/MS analysis; format: ADME, organism-based; conditions: Balb/c, blood, read-out: Ct
[20] = Drug metabolism in Balb/c mouse blood assessed as concentration of parent compound at 50 mg/kg, po measured at 24 hrs by LC-MS/MS analysis; format: ADME, organism-based; conditions: read-out: Ct
[21] = Drug metabolism in Balb/c mouse blood assessed as concentration of phosphate ester metabolite formation at 1 mg/kg, po measured at 24 hrs by LC-MS/MS analysis; format: ADME, organism-based; conditions: in vivo
[22] = Drug metabolism in Balb/c mouse blood assessed as concentration of phosphate ester metabolite formation at 50 mg/kg, po measured at 24 hrs by LC-MS/MS analysis; format: ADME, organism-based; conditions: in vivo
[23] = Ratio of drug metabolism in Balb/c mouse blood assessed as phosphate ester metabolite to parent drug at 30 mg/kg, po measured at 24 hrs by LC-MS/MS analysis; conditions: in vivo
[24] = Cardiotoxicity in human iPSC derived cardiomyocytes assessed as reduction in beating rate at 1 nM measured over 2 hrs by multi-electrode array relative to control; format: toxicity, cell-based; design: scale not given: the % may be the effect or the level left; conditions: stem cell-derived cardiomyocyte, 0.001 µM
[25] = Cardiotoxicity in human iPSC derived cardiomyocytes assessed as reduction in beating rate at 10 nM measured over 2 hrs by multi-electrode array relative to control; format: toxicity, cell-based; design: scale not given: the % may be the effect or the level left; conditions: stem cell-derived cardiomyocyte, 0.01 µM
[26] = Ratio of drug metabolism in Balb/c mouse blood assessed as phosphate ester metabolite to parent drug at 1 mg/kg, po measured at 24 hrs by LC-MS/MS analysis; format: ADME, organism-based; conditions: in vivo
[27] = Pulmonary toxicity in Lewis rat assessed as elevation of BAL protein level at 3 mg/kg by advia1800 chemistry analyzer; format: organism-based; conditions: in vivo
[28] = Drug metabolism in pH 7.4 Tris-HCl buffer assessed as amount of phosphate ester metabolite formation at […] in presence of sphingosine kinase 1,2 and Mg-ATP incubated for 30 mins by TLC based analysis relative to fingolimod

`COc1ccccc1CC[C@H]1CCc2cc([C@H]3CC[C@](N)(CO)C3)ccc2C1` showed an Activity (Rattus norvegicus [1]) of 46%, a concentration at 4 h [2] of 90 nM and an Activity (Rattus norvegicus [3]) of 81%. It also gave a concentration at 24 h [4] of 50 nM, a half-life [5] of 20 h and a Ratio [6] of 1. The Activity [7] was 29 mg/dL, the Activity [8] was 10.5 mg/dL and the ED50 (Rattus norvegicus [9]) was 0.05 mg/kg. For the same compound, the Drug metabolism (Rattus norvegicus [10]) was 40 nM.
With `N[C@]1(CO)CC[C@H](c2ccc3c(c2)CC[C@@H](Cc2ccccc2)C3)C1` the Activity (Mus musculus [11]) was <10%, the Activity (Mus musculus [12]) was 82% and the Activity (Mus musculus [13]) was <10%. The Activity (Mus musculus [14]) was 84%, the concentration at 4 h [15] was 12 nM and the concentration at 4 h [16] was 2400 nM. The Drug metabolism [17] was 5.6 nM, the Drug metabolism [18] was 1100 nM and the concentration at 24 h [19] was 5.6 nM. For the same compound, the concentration at 24 h [20] was 530 nM, the Drug metabolism ([21]; BLD = below limit of detection) was “Bld” and the Drug metabolism [22] was 750 nM. For the same compound, the Ratio [23] was 1.4.
For `COc1cccc(CC[C@H]2CCc3cc([C@H]4CC[C@](N)(COP(=O)(O)O)C4)ccc3C2)c1`, the Activity [24] was 23% and the Activity [25] was 20%.
In the case of `COc1ccccc1CC1CCc2cc([C@H]3CC[C@](N)(CO)C3)ccc2C1` (some centres not stated), the Activity (Rattus norvegicus [1]) is reported as <10% and the Activity (Rattus norvegicus [3]) is reported as 13%.
With `COc1ccccc1CC[C@H]1CCc2cc([C@H]3CC[C@](N)(COP(=O)(O)O)C3)ccc2C1` the Activity [24] was 17% and the Activity [25] was 18%.
`COc1ccc(CC[C@@H]2CCc3cc([C@H]4CC[C@](N)(COP(=O)(O)O)C4)ccc3C2)cc1` gave an Activity [24] of 27% and an Activity [25] of 35%.
In the case of `COc1cccc(CC[C@@H]2CCc3cc([C@H]4CC[C@](N)(COP(=O)(O)O)C4)ccc3C2)c1`, the Activity [24] is reported as 15% and the Activity [25] is reported as 31%.
With `N[C@]1(CO)CC[C@H](c2ccc3c(c2)CC[C@H](Cc2ccccc2)C3)C1` the Activity (Mus musculus [11]) was 21%, the Activity (Mus musculus [12]) was 83% and the Activity (Mus musculus [13]) was 15%. It also gave an Activity (Mus musculus [14]) of 78%, a concentration at 4 h [15] of 28 nM and a concentration at 4 h [16] of 1800 nM. For the same compound, the Drug metabolism [17] was 12 nM, the Drug metabolism [18] was 480 nM and the concentration at 24 h [19] was 9 nM. For the same compound, the concentration at 24 h [20] was 300 nM, the Drug metabolism [21] was 11 nM and the Drug metabolism [22] was 310 nM. The Ratio [26] was 1.2 and the Ratio [23] was 1.
`COc1cccc(CC[C@@H]2CCc3cc([C@H]4CC[C@](N)(CO)C4)ccc3C2)c1` gave an Activity (Rattus norvegicus [1]) of 69%, a concentration at 4 h [2] of 90 nM and an Activity (Rattus norvegicus [3]) of 84%. It also gave a concentration at 24 h [4] of 80 nM, a half-life [5] of 31 h and a Ratio [6] of 6.3. It also gave an Activity [27] of 10 mg/dL, an Activity [7] of 12.7 mg/dL and an ED50 (Rattus norvegicus [9]) of 0.05 mg/kg. The Drug metabolism (Rattus norvegicus [10]) was 160 nM.
`N[C@]1(CO)CC[C@H](c2ccc3c(c2)CC[C@H](CCc2ccccc2)C3)C1` showed an Activity (Rattus norvegicus [1]) of 11%, a concentration at 4 h [2] of 230 nM and an Activity (Rattus norvegicus [3]) of 78%. The concentration at 24 h [4] was 300 nM, the half-life [5] was > 75 h and the Ratio [6] was 1.2. For the same compound, the Drug metabolism (Rattus norvegicus [10]) was 40 nM.
Work on `COc1cccc(CC[C@H]2CCc3cc([C@H]4CC[C@](N)(CO)C4)ccc3C2)c1` yielded an Activity (Rattus norvegicus [1]) of 44%, a concentration at 4 h [2] of 120 nM and an Activity (Rattus norvegicus [3]) of 85%. It also gave a concentration at 24 h [4] of 210 nM, a half-life [5] of 49 h and a Ratio [6] of 1.1. The Activity [7] was 17.5 mg/dL, the Activity [8] was 10 mg/dL and the ED50 (Rattus norvegicus [9]) was 0.05 mg/kg. For the same compound, the Drug metabolism (Rattus norvegicus [10]) was 30 nM.
In the case of `COc1ccnc(CC[C@H]2CCc3cc([C@H]4CC[C@](N)(CO)C4)ccc3C2)c1`, the Drug metabolism [28] is reported as 3%.
In the case of `Cn1cc(CC[C@@H]2CCc3cc([C@H]4CC[C@](N)(CO)C4)ccc3C2)cn1`, the Drug metabolism [28] is reported as 6%.
In the case of `Cn1ccc(CC[C@@H]2CCc3cc([C@H]4CC[C@](N)(CO)C4)ccc3C2)n1`, the Drug metabolism [28] is reported as 8%.

Source: ChEMBL document CHEMBL4765241, “Identification and Preclinical Pharmacology of ((1 R,3 S)-1-Amino-3-(( S)-6-(2-methoxyphenethyl)-5,6,7,8-tetrahydronaphthalen-2-yl)cyclopentyl)methanol (BMS-986166): A Differentiated Sphingosine-1-phosphate Receptor 1 (S1P) Modulator Advanced into Clinical Trials” (J Med Chem, 2019)
